Test results taken from patent US20050209278A1, “Piperidinyl- and piperazinyl-sulfonylmethyl hydroxamic acids and their use as protease inhibitors” (priority 2002, published 2005).
pKi: −log10 of the molar value. “And” between values parts separate entries of the source, which are not always exact repeats. Identical values can stand only once.

How the values were obtained:
[1] = target: T1, MMP-9 (Homo sapiens, UniProt P14780); experiment: In vitro MMP inhibition, Ki determination (fluorogenic substrate II); format: biochemical; conditions: value outside parentheses
T1 construct: made in house; host or cells: MMP-9-transfected HT1080 cells (spent media)
In short: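 HT1080-derived MMP-9, activated with APMA, trypsin or MMP-3, incubated 1 hr at room temperature with inhibitor and 4 μM fluorogenic substrate II (at or below Km) in pH 7.5 Tris/NaCl/CaCl2 buffer; ex 330/em 420 nm. Ki from Morrison-equation regression, without substrate correction.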

[2] = target: T2, MMP-1 (Homo sapiens, UniProt P03956); experiment: as above; format: biochemical; conditions: value outside parentheses; read-out: MMP-1 Ki
T2 construct: made in house; host or cells: MMP-1-transfected HT-1080 cells (spent media)
T2 sequence (P03956 100-469): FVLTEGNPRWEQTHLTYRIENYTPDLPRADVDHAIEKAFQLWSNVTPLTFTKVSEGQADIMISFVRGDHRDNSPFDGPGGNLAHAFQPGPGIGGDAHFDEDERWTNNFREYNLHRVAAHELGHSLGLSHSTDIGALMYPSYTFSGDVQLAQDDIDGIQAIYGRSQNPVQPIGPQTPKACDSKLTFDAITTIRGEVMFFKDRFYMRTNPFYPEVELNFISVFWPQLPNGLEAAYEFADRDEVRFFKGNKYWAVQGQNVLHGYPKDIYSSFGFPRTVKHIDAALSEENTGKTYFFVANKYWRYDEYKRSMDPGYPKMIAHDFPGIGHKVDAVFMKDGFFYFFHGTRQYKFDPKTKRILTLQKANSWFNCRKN

T1 sequence (P14780 107-707 limits assumed): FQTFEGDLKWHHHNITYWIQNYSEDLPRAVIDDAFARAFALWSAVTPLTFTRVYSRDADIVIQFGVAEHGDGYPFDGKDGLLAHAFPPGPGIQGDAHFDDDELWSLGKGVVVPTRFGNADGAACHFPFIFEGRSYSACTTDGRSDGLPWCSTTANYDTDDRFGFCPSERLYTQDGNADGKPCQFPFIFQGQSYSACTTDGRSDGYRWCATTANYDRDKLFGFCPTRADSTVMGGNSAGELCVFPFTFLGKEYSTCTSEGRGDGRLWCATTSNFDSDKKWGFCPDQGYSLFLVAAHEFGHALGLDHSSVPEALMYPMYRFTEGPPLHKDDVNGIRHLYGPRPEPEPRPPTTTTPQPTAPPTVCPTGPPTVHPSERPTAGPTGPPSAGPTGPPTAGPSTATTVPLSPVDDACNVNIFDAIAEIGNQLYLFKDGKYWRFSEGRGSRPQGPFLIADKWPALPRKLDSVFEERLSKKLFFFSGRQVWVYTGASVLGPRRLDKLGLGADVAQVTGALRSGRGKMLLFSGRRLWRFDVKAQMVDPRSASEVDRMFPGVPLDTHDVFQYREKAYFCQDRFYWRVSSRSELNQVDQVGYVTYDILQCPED

| SMILES | pKi [1] | pKi [2] |
| --- | --- | --- |
| CCc1ccc(C2CCN(S(=O)(=O)C3(C(=O)NO)CCN(CCOC)CC3)CC2)s1 [Example 314] | 7.66 | < 5.00 |
| O=C(NO)C1(S(=O)(=O)N2CCC(N3CCN(c4ccc(Cl)cc4)CC3)CC2)CCOCC1 [Example 315] | 5.30 | < 5.00 |
| O=C(NO)C1(S(=O)(=O)N2CCN(c3ccc(-c4ccc(F)cc4F)cn3)CC2)CCOCC1 [Example 316] | 8.62 | 5.26 |
| O=C(NO)C1(S(=O)(=O)N2CCN(c3ccc(-c4ccccc4F)cn3)CC2)CCOCC1 [Example 317] | 8.66 | 5.62 |
| COc1ccccc1-c1ccc(N2CCN(S(=O)(=O)C3(C(=O)NO)CCOCC3)CC2)nc1 [Example 318] | 5.86 | < 5.00 |
| O=C(NO)C1(S(=O)(=O)N2CCN(c3ccc(-c4cccc(OC(F)(F)F)c4)cn3)CC2)CCOCC1 [Example 319] | 6.03 | < 5.00 |
| O=C(NO)C1(S(=O)(=O)N2CCN(c3ccc(CCCC(F)(F)F)cc3)CC2)CCOCC1 [Example 320] | 8.88 | < 5.00 |
| O=C(NO)C1(S(=O)(=O)N2CCN(c3cnn(CCCC(F)(F)F)c(=O)c3)CC2)CCOCC1 [Example 321] | < 5.00 | < 5.00 |
| O=C(NO)C1(S(=O)(=O)N2CCN(c3cnn(-c4ccccc4)c(=O)c3)CC2)CCOCC1 [Example 322] | < 5.00 | < 5.00 |
| CCCCc1ccc(C2CCN(S(=O)(=O)C3(C(=O)NO)CCOCC3)CC2)nc1 [Example 323] | – | 5.21 |
| COC(=O)c1ccc(N2CCN(S(=O)(=O)C3(C(=O)NO)CCOCC3)CC2)cc1 [Example 324] | 8.62 | 5.73 |
| CCCCOc1ccc(N2CCN(S(=O)(=O)C3(C(=O)NO)CCN(CCOC)CC3)CC2)nc1 [Example 325] | 9.49 | 5.12 |
| O=C(NO)C1(S(=O)(=O)N2CCN(c3ccc(OCC(F)(F)C(F)F)cc3)CC2)CCOCC1 [Example 326] | 8.69 | 5.18 |
| O=C(NO)C1(S(=O)(=O)N2CCN(c3ccc(-c4ccc(OC(F)(F)F)cc4)cc3)CC2)CCOCC1 [Example 327] | 7.45 | 5.14 |
| O=C(NO)C1(S(=O)(=O)N2CCN(c3ccc(-c4ccc(Cl)c(Cl)c4)cc3)CC2)CCOCC1 [Example 328] | 7.02 | 5.43 |
| O=C(NO)C1(S(=O)(=O)N2CCN(c3cnn(-c4ccccc4)c(=O)c3Cl)CC2)CCOCC1 [Example 329] | < 5.00 | < 5.00 |
| O=C(NO)C1(S(=O)(=O)N2CCC(c3ccc(OCC(F)(F)C(F)(F)F)cc3)CC2)CCOCC1 [Example 330] | 8.52 | 5.27 |

| SMILES | pKi [1] | pKi [2] |
| --- | --- | --- |
| O=C(NO)C1(S(=O)(=O)N2CCN(c3ccc(Br)cn3)CC2)CCOCC1 [Example 331] | 8.77 | 6.55 |
| COCCN1CCC(C(=O)NO)(S(=O)(=O)N2CCN(c3ncccn3)CC2)CC1 [Example 332] | 6.59 | 5.29 |
| O=C(NO)C1(S(=O)(=O)N2CCN(c3ccc(OCC4CC4)c(F)c3)CC2)CCOCC1 [Example 333] | 8.98 | < 5.00 |
| CCCCc1cnc(N2CCN(S(=O)(=O)C3(C(=O)NO)CCN(CCOC)CC3)CC2)nc1 [Example 334] | 8.92 | < 5.00 |
| O=C(NO)C1(S(=O)(=O)N2CCN(c3ccc(CCC(F)(F)C(F)(F)F)cc3)CC2)CCN(C2CC2)CC1 [Example 335] | 9.42 | < 5.00 |
| O=C(NO)C1(S(=O)(=O)N2CCN(c3ccc(OCC(F)(F)C(F)F)cc3)CC2)CCOCC1 [Example 336] | 8.86 | 5.58 |
| O=C(NO)C1(S(=O)(=O)N2CCC(c3ccc(OC(F)(F)C(F)F)cc3)CC2)CCOCC1 [Example 337] | 9.10 | 5.48 |
| O=C(NO)C1(S(=O)(=O)N2CCC(c3ccc(CCCC(F)(F)F)cn3)CC2)CCOCC1 [Example 338] | 9.13 | 5.01 |
| O=C(NO)C1(S(=O)(=O)N2CCC(c3ccc(CCC(F)(F)C(F)(F)F)cn3)CC2)CCOCC1 [Example 340] | 9.65 | 5.23 |
| CCN1CCC(C(=O)NO)(S(=O)(=O)N2CCN(c3ccc(-c4ccccc4)c(F)c3)CC2)CC1 [Example 341] | 8.42 | < 5.00 |
| O=C(NO)C1(S(=O)(=O)N2CCN(c3ccc(OCCCC(F)(F)F)cc3)CC2)CC(O)C1 (stereo not drawn) [Example 342] | 6.97 | < 5.00 |
| O=C(NO)C1(S(=O)(=O)N2CCN(c3ncc(-c4ccc(Cl)cc4)s3)CC2)CCOCC1 [Example 343] | 9.31 | 5.28 |
| Cc1ccc(-c2cnc(N3CCN(S(=O)(=O)C4(C(=O)NO)CCOCC4)CC3)s2)cc1 [Example 344] | 9.31 | 5.45 |
| O=C(NO)C1(S(=O)(=O)N2CCN(c3ncc(-c4ccc(F)cc4)s3)CC2)CCOCC1 [Example 345] | 9.38 | 5.26 |
| O=C(NO)C1(S(=O)(=O)N2CCN(c3ncc(-c4ccc(C(F)(F)F)cc4)s3)CC2)CCOCC1 [Example 346] | 8.69 | 5.24 |
| CC(C)(C)c1ccc(-c2cnc(N3CCN(S(=O)(=O)C4(C(=O)NO)CCOCC4)CC3)s2)cc1 [Example 347] | 8.20 | 5.56 |

Further lines, results first:

| pKi [1] | pKi [2] | SMILES |
| --- | --- | --- |
| 8.02 | < 5.00 | Cc1ccccc1-c1cnc(N2CCN(S(=O)(=O)C3(C(=O)NO)CCOCC3)CC2)s1 [Example 348] |
| 7.53 | < 5.00 | O=C(NO)C1(S(=O)(=O)N2CCC(c3ccc(OC(F)(F)C(F)(F)F)cc3)CC2)CCOCC1 [Example 349] |
| 8.92 | < 5.00 | O=C(NO)C1(S(=O)(=O)N2CCC(c3ccc(OCC(F)(F)C(F)F)cc3)CC2)CCN(C2CC2)CC1 [Example 350] |
| 9.37 | < 5.00 | O=C(NO)C1(S(=O)(=O)N2CCC(c3ccc(CCCC(F)(F)F)cc3)CC2)CCN(C2CC2)CC1 [Example 351] |
| 5.18 | < 5.00 | O=C(O)c1ccc(N2CCN(S(=O)(=O)C3(C(=O)NO)CCOCC3)CC2)cc1 [Example 352] |
| 9.26 | 5.07 | O=C(NO)C1(S(=O)(=O)N2CCC(c3ccc(CCCC(F)(F)F)cc3)CC2)CCOCC1 [Example 353] |
| 6.10 | < 5.00 | CCCCOc1cccc(N2CCN(S(=O)(=O)C3(C(=O)NO)CCOCC3)CC2)c1 [Example 354] |
| 6.20 | < 5.00 | O=C(NO)C1(S(=O)(=O)N2CCN(c3cccc(OCCCC(F)(F)F)c3)CC2)CCOCC1 [Example 355] |
| 6.74 | < 5.00 | CCCCCc1cccc(N2CCN(S(=O)(=O)C3(C(=O)NO)CCOCC3)CC2)c1 [Example 356] |
| 9.14 | 5.42 | O=C(NO)C1(S(=O)(=O)N2CCC(c3ccc(OCC(F)(F)F)cc3)CC2)CCOCC1 [Example 357] |
| 9.07 | < 5.00 | O=C(NO)C1(S(=O)(=O)N2CCN(c3ccc(CCCC(F)(F)F)cn3)CC2)CCOCC1 [Example 358] |
| 8.92 | 5.59 | O=C(NO)C1(S(=O)(=O)N2CCN(c3ncc(-c4ccc(F)cc4F)s3)CC2)CCOCC1 [Example 359] |
| 8.20 | < 5.60 | O=C(NO)C1(S(=O)(=O)N2CCN(c3ncc(-c4ccc(-c5ccccc5)cc4)s3)CC2)CCOCC1 [Example 360] |
| 7.44 and 7.48 | < 5.60 | O=C(NO)C1(S(=O)(=O)N2CCN(c3ncc(/C=C/c4ccccc4)s3)CC2)CCOCC1 [Example 361] |
| 8.86 | 5.67 | O=C(NO)C1(S(=O)(=O)N2CCN(c3ncc(-c4ccc5c(c4)OCO5)s3)CC2)CCOCC1 [Example 362] |
| 8.76 | 5.63 | O=C(NO)C1(S(=O)(=O)N2CCN(c3ncc(-c4ccc([N+](=O)[O-])cc4)s3)CC2)CCOCC1 [Example 363] |
| 9.10 | 5.40 | O=C(NO)C1(S(=O)(=O)N2CCN(c3ncc(-c4ccc(OC(F)(F)F)cc4)s3)CC2)CCOCC1 [Example 364] |
| 5.91 | < 5.00 | O=C(NO)C1(S(=O)(=O)N2CCN(c3ncc(-c4cccc(-c5ccccc5)c4)s3)CC2)CCOCC1 [Example 365] |
| 8.61 | 5.67 | CC(C)c1ccc(-c2cnc(N3CCN(S(=O)(=O)C4(C(=O)NO)CCOCC4)CC3)s2)cc1 [Example 366] |
| 9.20 | 5.01 | O=C(NO)C1(S(=O)(=O)N2CCC(c3ccc(CCC(F)(F)F)cn3)CC2)CCOCC1 [Example 367] |
| 9.37 | 5.47 | O=C(NO)C1(S(=O)(=O)N2CCN(c3ncc(-c4ccc(O)cc4)s3)CC2)CCOCC1 [Example 368] |
| 7.64 | < 5.00 | O=C(NO)C1(S(=O)(=O)N2CCN(c3ncc(-c4ccc(Cl)c(Cl)c4)s3)CC2)CCOCC1 [Example 369] |
| 8.04 | 5.24 | Cc1cccc(-c2cnc(N3CCN(S(=O)(=O)C4(C(=O)NO)CCOCC4)CC3)s2)c1 [Example 370] |
| 8.19 | 5.08 | COc1ccc(-c2cnc(N3CCN(S(=O)(=O)C4(C(=O)NO)CCOCC4)CC3)s2)cc1OC [Example 371] |
| 9.18 and 9.12 | 6.21 and 6.10 | O=C(NO)C1(S(=O)(=O)N2CCN(c3ccc(-c4ccccc4)cn3)CC2)CCOCC1 [Example 372] |
| 8.12 | < 5.00 | O=C(NO)C1(S(=O)(=O)N2CCC(COCc3ccccc3)CC2)CCOCC1 [Example 373] |
